Assay [1] deals with T1, IDO1 (Homo sapiens, UniProt P14902). Kind of assay: Kynurenine assay by HPLC analysis, IDO1. It is filed as biochemical. Further details: made in house; host or cells: Escherichia coli M15 (pQE30 vector with pREP4 plasmid). Particulars: for IC50: HPLC based IDO1 inhibition assay; for inhibition at 0.032 µM / inhibition at 0.16 µM / inhibition at 0.8 µM / inhibition at 4 µM / inhibition at 20 µM / inhibition at 100 µM: HPLC; for inhibition at 0.032 µM: 32 nM; for inhibition at 0.16 µM: 160 nM; for inhibition at 0.8 µM: 800 nM. Here is the method: (§1) HPLC based IDO1, and TDO inhibition assays were performed according to the earlier reported procedure[19],[27]–[30]. The reaction mixture (250 µL) contained KPB (100 mM, pH 6.5 for IDO1 and 50 mM, pH 8.0 for TDO), sodium ascorbate (20 mM), methylene blue (10 µM), catalase (240 nM, from bovine liver, Sigma), L-Trp (150 µM), purified enzyme (40 nM for IDO1 and 25 nM for TDO), DMSO (0.05%, v/v), Triton-X 100 (0.01%, v/v) and inhibitors. The concentration of the compound was varied from 100 µM to 32 nM by serial dilution. The mixture was incubated at 37 °C for 1 hour in the absence and presence of the synthesized compounds. The reaction was then quenched using 50 µL of 30% (w/v) trichloroacetic acid and incubated at 65 °C for additional 15 minutes to allow complete hydrolysis of N-formylkynurenine to kynurenine. After that, the mixture was centrifuged at 10,000 rpm for 10 minutes, and 100 µL of clear solution was transferred to another tube for HPLC analysis. Then, 20 µL of the reaction mixture was then injected through Ascentis® express C18, 2.7 µm HPLC column with a flow rate of 0.5 mL/minute of the mobile phase containing 50% sodium citrate buffer (40 mM, pH 2.25) and 50% methanol (v/v) with 400 µM SDS. The area under the curve at 365 nm chromatogram corresponding to the kynurenine formation was recorded, and % of inhibition was calculated using standard curve prepared with pure kynurenine (from Sigma) under similar experimental conditions.

A further assay has as its target T2, TDO enzyme (Homo sapiens, UniProt P48775).
T2 construct: 6xHis (N); made in house; host or cells: Escherichia coli BL21 (DE3) (pET 28a vector)
Kind of assay: HPLC based TDO inhibition assay. In kind it is biochemical. As to conditions: for inhibition at 0.032 µM: 32 nM; for inhibition at 0.16 µM: 160 nM; for inhibition at 0.8 µM: 800 nM. Here is the method: as §1

Assay [2] concerns the target T3, purified human IDO1 enzyme (Homo sapiens, UniProt P14902).
T3 construct: made in house; host or cells: Escherichia coli M15 (pQE30 vector with pREP4 plasmid)
The assay is described as follows: IDO1 inhibition assay by the spectrometric method (pDMAB). It is filed as biochemical. Particulars: for IC50: purified human IDO1, spectrophotometric, mean of three independent assays, read-out: hIDO1 IC50; for fold stronger IDO1 inhibitory activity than 1a: in comparison with lead compound 1a. Here is the method: Both IDO1 and TDO inhibition assays were performed according to the reported procedures[26]–[30],[50],[51]. […] In the assay system, the minimum and maximum amount of DMSO was 0.02% and 2%, respectively. […] The concentration of the inhibitors was varied from 100 µM to 32 nM by serial dilution technique. Then, the reaction was quenched with 100 µL of 30% (w/v) trichloroacetic acid and was incubated for further 15 minutes at 65 °C. After that, 2% (w/v) pDMAB was used to quantify the amount of kynurenine formation. The absorbance of the reaction mixture was recorded by UV-Vis spectrophotometer at 480 nm.

In assay [3] the target is T1, IDO1. The assay is described as follows: Cellular IDO1 activity assay in IFN-γ induced MDA-MB-231 cells. It is filed as cell-based. Further details: induce the expression of the native IDO1 enzyme from its mRNA in the MDA-MB-231 cells; endogenous in cells; host or cells: MDA-MB-231 cells induced with human IFN-γ (50 ng/mL). Particulars: IDO1 expression induced by human IFN-γ (50 ng/mL); mean of three. The procedure: The cellular enzyme activity assay was performed according to the reported procedure with minor modifications[19],[27]–[30],[33],[54]. Briefly, MDA-MB-231 breast cancer cells were selected for this assay because of the presence of IDO1 mRNA in this cell line. First, cells were grown in DMEM/F12 complete media overnight. Then different concentration of human interferon-gamma (IFN-γ) (from 5–1000 ng/mL) was added to it and incubated for 48 hours. This treatment is reported to allow over-expression of IDO1 enzyme in MDA-MB-231 cells. […] Sterile cell-culture grade PBS was used to wash the cells by centrifugation technique. Then, the pellet was lysed in 10 mM HEPES buffer by passing through a sterile syringe. The lysate was used for standard IDO1 assay as mentioned earlier. The relative amount of N-formylkynurenine generated in the presence of the different concentration of IFN-γ was used to optimize the required concentration of IFN-γ for the IDO1 inhibition assay. […] Cells stimulated with IFN-γ alone were used as negative control, while cells stimulated with L-Trp without compound served as positive control. The cells were washed with sterile cell culture grade PBS and lysed in 10 mM HEPES buffer by sterile syringe. The lysate was used for standard IDO1 assay, as mentioned earlier, and the extent of IDO1 enzyme inhibition was determined for the selected compounds.

The target in assay [4] is T4, purified human TDO enzyme (Homo sapiens, UniProt P48775).
T4 construct: 6xHis (N); made in house; host or cells: Escherichia coli BL21 (DE3) (pET 28a vector)
The assay is described as follows: TDO inhibition assay by the spectrometric method. In kind it is biochemical. Particulars: spectrophotometric; for inhibition at 0.032 µM: 32 nM; for inhibition at 0.16 µM: 160 nM; for inhibition at 0.8 µM: 800 nM. The procedure: Both IDO1 and TDO inhibition assays were performed according to the reported procedures[26]–[30],[50],[51]. The solubility of the compounds in water was either moderate or poor. […] In the assay system, the minimum and maximum amount of DMSO was 0.02% and 2%, respectively. The standard reaction mixture (500 μL) containing KPB (100 mM, pH 6.5 for IDO1 enzyme and 50 mM, pH 8.0 for TDO enzyme), sodium ascorbate (20 mM), methylene blue (10 µM), catalase (240 nM, from bovine liver), L-Trp (150 µM), purified enzyme (40 nM for IDO1 and 25 nM for TDO), DMSO (0.05%, v/v), Triton-X 100 (0.01%, v/v) and inhibitors was incubated at 37 °C for 1 hour. The concentration of the inhibitors was varied from 100 µM to 32 nM by serial dilution technique. Then, the reaction was quenched with 100 µL of 30% (w/v) trichloroacetic acid and was incubated for further 15 minutes at 65 °C. After that, 2% (w/v) pDMAB was used to quantify the amount of kynurenine formation. The absorbance of the reaction mixture was recorded by UV-Vis spectrophotometer at 480 nm. The Km = 59.76 µM and Kcat = 6.18 sec^−1.

Broadly, the IC50 is the concentration that gives 50% inhibition. In general, inhibition refers to the change of the read-out against control, counted positive when it falls. As a reminder, the EC50 is the midpoint of the concentration-response curve. A lower EC50 goes with a more potent agent.

T4 sequence (P48775 whole entry): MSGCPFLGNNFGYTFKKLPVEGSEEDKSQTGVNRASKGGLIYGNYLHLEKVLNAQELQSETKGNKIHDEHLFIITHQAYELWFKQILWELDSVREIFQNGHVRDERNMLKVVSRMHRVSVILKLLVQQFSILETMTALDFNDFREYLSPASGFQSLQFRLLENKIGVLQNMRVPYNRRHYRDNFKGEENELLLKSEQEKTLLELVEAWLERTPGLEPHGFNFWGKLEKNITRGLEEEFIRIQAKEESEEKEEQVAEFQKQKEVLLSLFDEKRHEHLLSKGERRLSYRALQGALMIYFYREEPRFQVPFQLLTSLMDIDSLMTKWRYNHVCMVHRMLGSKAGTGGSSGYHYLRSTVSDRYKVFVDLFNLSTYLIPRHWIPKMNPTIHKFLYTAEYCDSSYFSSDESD
T2 sequence (P48775 whole entry): as above
T1 sequence (P14902 whole entry): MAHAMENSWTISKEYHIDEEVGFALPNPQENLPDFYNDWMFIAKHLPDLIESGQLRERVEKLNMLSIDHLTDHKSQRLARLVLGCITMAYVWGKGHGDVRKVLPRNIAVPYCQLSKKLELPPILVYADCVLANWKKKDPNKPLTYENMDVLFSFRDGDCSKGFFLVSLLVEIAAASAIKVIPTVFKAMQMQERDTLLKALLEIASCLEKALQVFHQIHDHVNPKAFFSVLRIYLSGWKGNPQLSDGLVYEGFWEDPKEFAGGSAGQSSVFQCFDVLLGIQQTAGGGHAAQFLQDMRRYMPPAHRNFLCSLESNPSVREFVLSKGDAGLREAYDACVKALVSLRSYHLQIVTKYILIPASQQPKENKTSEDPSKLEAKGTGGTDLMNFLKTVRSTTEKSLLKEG
T3 sequence (P14902 whole entry): as above

`NS(=O)(=O)NCCNC(=O)c1n[nH]nc1-c1ccc(Cl)c(Cl)c1` [Compound 4l, 5-(3,4-dichlorophenyl)-N-(2-(sulfamoylamino)ethyl)-2H-1,2,3-triazole-4-carboxamide]: at IDO1 [1], the IC50 is 0.098 ± 0.007 µM, the inhibition at 0.032 µM turned out to be 33%, the inhibition at 0.16 µM came out at 57% and the inhibition at 0.8 µM was determined as 65%. Further, on IDO1 [1], the inhibition at 4 µM is 88%, the inhibition at 20 µM was determined as 93% and at 100 µM the inhibition was 94%. Moreover, at TDO enzyme, the inhibition at 0.032 µM turned out to be 14%, the inhibition at 0.16 µM stood at 15%, at 0.8 µM the inhibition was 22% and the inhibition at 4 µM came to 29%. At TDO enzyme, this compound showed an inhibition at 20 µM of 38% and an inhibition at 100 µM of 55%. In assay [2] (4 μM compound), this compound came in with an inhibition at 4 µM of 71 to 86%. In assay [2] (100 μM compound), this compound displayed an inhibition at 100 µM of 82 to 93%. For the same compound, in assay [2], the half-maximal inhibitory concentration (IC50) worked out at 0.093 ± 0.009 µM. This compound came in with an EC50 at IDO1 [3] of 0.083 ± 0.005 µM. In assay [4], this compound returned an inhibition at 0.032 µM of 3%, an inhibition at 0.16 µM of 10%, an inhibition at 0.8 µM of 11% and an inhibition at 4 µM of 19%. In assay [4], this compound returned an inhibition at 20 µM of 25% and an inhibition at 100 µM of 26%.

Regarding `CCOC(=O)c1n[nH]nc1-c1ccccc1` [Compound 2a, ethyl 5-phenyl-2H-1,2,3-triazole-4-carboxylate], at IDO1 [1], the 50% inhibitory concentration (IC50) stood at 2.79 ± 0.066 µM, the inhibition at 0.032 µM came to 26%, the inhibition at 0.16 µM amounted to 31% and the inhibition at 0.8 µM turned out to be 35%. At IDO1 [1], this compound gave an inhibition at 4 µM of 61%, an inhibition at 20 µM of 76% and an inhibition at 100 µM of 81%. For the same compound, at TDO enzyme, 0.032 µM produced 9% inhibition, testing at 0.16 µM gave an inhibition of 39%, the inhibition at 0.8 µM amounted to 49% and the inhibition at 4 µM was found to be 68%. Besides, at TDO enzyme, at 20 µM the inhibition was 68% and 100 µM produced 73% inhibition. Moreover, in assay [2], the “fold stronger IDO1 inhibitory activity than 1a” value stood at 6 fold and the IC50 turned out to be 14.4 ± 3.36 µM. Moreover, the response on IDO1 [3] was half-maximal at 3.26 ± 0.045 µM (EC50). In assay [4], this compound yielded an inhibition at 0.032 µM of 8%, an inhibition at 0.16 µM of 17%, an inhibition at 0.8 µM of 19% and an inhibition at 4 µM of 23%. Besides, in assay [4], the inhibition at 20 µM was 27% and testing at 100 µM gave an inhibition of 34%.

In the case of `NC(=O)c1n[nH]nc1-c1ccccc1` [Compound 3a, 5-phenyl-2H-1,2,3-triazole-4-carboxamide], on IDO1 [1], the IC50 was determined as 1.19 ± 0.039 µM, the inhibition at 0.032 µM was 11%, 0.16 µM produced 31% inhibition and at 0.8 µM the inhibition was 36%. On IDO1 [1], this compound registered an inhibition at 4 µM of 63%, an inhibition at 20 µM of 79% and an inhibition at 100 µM of 80%. On TDO enzyme, this compound yielded an inhibition at 0.032 µM of 3%, an inhibition at 0.16 µM of 4%, an inhibition at 0.8 µM of 17% and an inhibition at 4 µM of 22%. On TDO enzyme, 20 µM produced 25% inhibition and testing at 100 µM gave an inhibition of 30%. In assay [2], the “fold stronger IDO1 inhibitory activity than 1a” value turned out to be 10 fold and the IC50 stood at 8.541 ± 0.084 µM. The response at IDO1 [3] was half-maximal at 1.3 ± 0.068 µM (EC50). In assay [4], the inhibition at 0.032 µM was found to be 5%, the inhibition at 0.16 µM was 7%, the inhibition at 0.8 µM turned out to be 19% and 4 µM produced 23% inhibition. For the same compound, in assay [4], the inhibition at 20 µM turned out to be 29% and 100 µM produced 42% inhibition.

Source of the values: PMC6895048, “4,5-Disubstituted 1,2,3-triazoles: Effective Inhibition of Indoleamine 2,3-Dioxygenase 1 Enzyme Regulates T cell Activity and Mitigates Tumor Growth” (Scientific Reports, 2019).
